Paper PMC9400870 (2022)

Key:
[1] = test system: p(dAdT)2 (DNA, polymer) AT; assay: UV thermal denaturation, 260 nm; details: Na+ (sodium cacodylate, I = 0.05 M), pH 7, polynucleotide 2×10^-5 M, per base
[2] = test system: pApU (RNA, polymer) A/U; assay: UV thermal denaturation, 260 nm; details: Na+ (sodium cacodylate, I = 0.05 M), pH 7, per base
[3] = test system: p(dAdT)2 (DNA, polymer) AT; assay: fluorimetric titration, Scatchard fit; details: Na+ (sodium cacodylate, I = 0.05 M); pH 7.0; compound 5×10^-7 M; n fixed at 0.1; per base
[4] = test system: p(dGdC)2 (DNA, polymer) GC; assay: fluorimetric titration, Scatchard fit; details: Na+ (sodium cacodylate, I = 0.05 M); pH 7.0; compound 5×10^-7 M; n fixed at 0.1; per base
[5] = test system: pApU (RNA, polymer) A/U; assay: fluorimetric titration, Scatchard fit; details: Na+ (sodium cacodylate, I = 0.05 M); pH 7.0; compound 5×10^-7 M; n fixed at 0.1; per base
[6] = r [compound]/[polynucleotide] = 0.3

Row | SMILES | ΔTm [1, 6] [°C] | ΔTm [2, 6] [°C] | log Ks [3] [M^-1] | log Ks [4] [M^-1] | log Ks [5] [M^-1] | ΔTm ([1]; r [compound]/[polynucleotide] = 0.2) [°C] | ΔTm ([2]; r [compound]/[polynucleotide] = 0.2, polynucleotide 2×10^-5 M) [°C]
1 | C[n+]1ccc(C#Cc2c(F)c(F)c(C#Cc3cc[n+](C)cc3)c(F)c2F)cc1 | 7.0 ± 0.5 | 1.0 ± 0.5 | 5.2 | 5.1 | 5.0 | – | –
2 | C[n+]1ccc(C#Cc2c3ccccc3c(C#Cc3cc[n+](C)cc3)c3ccccc23)cc1 | – | – | 6.6 | 7.0 | 5.3 | 37 ± 0.5 | 39.0 ± 0.5
3 | C[n+]1ccc(C#Cc2ccc(C#Cc3cc[n+](C)cc3)cc2)cc1 | 2.0 ± 0.5 | 0 ± 0.5 | 4.5 | 5.9 | 5.3 | – | –
